The record followed here is PMC8793334, “Validation of a System xc^– Functional Assay in Cultured Astrocytes and Nervous Tissue Samples” (Frontiers in Cellular Neuroscience, 2022).

Format in all cases: cell-based
In experiment [1] the target is T1, xCT (system xc–, cystine-glutamate exchanger) (Rattus norvegicus, UniProt A0A8I6AB70).
T1 construct: gene Slc7a11; with 4F2hc (Slc3a2)
In words: inhibition of [3H]-L-glutamate uptake in Na+-free buffer, CHO-xCT cells, concentration-response.

Experiment [2] addresses T1, xCT (system xc–, cystine-glutamate exchanger). In words: radiolabeled substrate uptake in Na+-free buffer, transfected versus non-transfected CHO cells.
In experiment [3] the target is T2, xCT (system xc–, cystine-glutamate exchanger) (Mus musculus, UniProt Q9WTR6).
T2 construct: gene Slc7a11; native exchanger in cultured astrocytes and spinal cord crude synaptosomes, wild-type versus xCT–/–; with 4F2hc (Slc3a2)
T2 sequence (Q9WTR6 1-502): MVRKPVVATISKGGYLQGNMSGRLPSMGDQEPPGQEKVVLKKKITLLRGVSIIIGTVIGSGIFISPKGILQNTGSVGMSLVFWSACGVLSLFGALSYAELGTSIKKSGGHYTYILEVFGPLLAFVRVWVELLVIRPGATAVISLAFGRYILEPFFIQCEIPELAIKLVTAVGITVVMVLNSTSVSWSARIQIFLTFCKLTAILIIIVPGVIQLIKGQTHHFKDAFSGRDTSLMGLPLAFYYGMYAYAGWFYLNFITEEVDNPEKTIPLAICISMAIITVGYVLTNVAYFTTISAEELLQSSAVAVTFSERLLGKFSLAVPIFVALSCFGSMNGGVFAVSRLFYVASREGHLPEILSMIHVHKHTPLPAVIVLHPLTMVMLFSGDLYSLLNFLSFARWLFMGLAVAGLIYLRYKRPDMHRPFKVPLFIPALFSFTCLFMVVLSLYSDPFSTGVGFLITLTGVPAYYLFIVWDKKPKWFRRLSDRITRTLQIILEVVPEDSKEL
T2 sequence (P10852 1-526 partner): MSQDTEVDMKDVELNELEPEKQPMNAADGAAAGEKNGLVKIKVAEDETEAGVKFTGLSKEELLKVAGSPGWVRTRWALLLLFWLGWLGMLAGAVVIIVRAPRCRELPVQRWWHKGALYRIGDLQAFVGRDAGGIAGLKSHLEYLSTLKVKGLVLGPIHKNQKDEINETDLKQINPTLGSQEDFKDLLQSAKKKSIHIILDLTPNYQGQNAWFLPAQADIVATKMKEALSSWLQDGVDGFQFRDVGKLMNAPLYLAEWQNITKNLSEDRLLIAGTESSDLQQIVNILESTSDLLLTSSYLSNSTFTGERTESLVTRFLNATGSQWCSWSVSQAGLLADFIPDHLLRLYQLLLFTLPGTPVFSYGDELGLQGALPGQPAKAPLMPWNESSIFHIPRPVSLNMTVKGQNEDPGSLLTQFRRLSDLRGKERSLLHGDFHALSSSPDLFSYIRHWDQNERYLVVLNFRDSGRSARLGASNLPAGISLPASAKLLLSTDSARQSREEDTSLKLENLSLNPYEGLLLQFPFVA
In words: radiolabeled substrate uptake in Na+-free buffer, knockout control.

T1 sequence (A0A8I6AB70 1-502): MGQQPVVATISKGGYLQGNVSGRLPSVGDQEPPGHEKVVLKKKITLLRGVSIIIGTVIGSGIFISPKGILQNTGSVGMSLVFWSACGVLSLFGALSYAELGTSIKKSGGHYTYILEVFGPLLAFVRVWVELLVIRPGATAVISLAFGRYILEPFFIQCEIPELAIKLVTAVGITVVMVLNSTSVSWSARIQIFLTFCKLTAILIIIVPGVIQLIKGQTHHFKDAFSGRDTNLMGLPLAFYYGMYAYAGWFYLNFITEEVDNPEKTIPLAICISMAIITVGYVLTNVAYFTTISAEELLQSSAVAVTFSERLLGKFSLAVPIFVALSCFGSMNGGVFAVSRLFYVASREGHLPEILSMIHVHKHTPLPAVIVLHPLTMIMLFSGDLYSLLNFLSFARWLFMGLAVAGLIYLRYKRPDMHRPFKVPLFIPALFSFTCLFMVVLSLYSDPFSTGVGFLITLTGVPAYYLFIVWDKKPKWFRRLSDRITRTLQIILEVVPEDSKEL

`N[C@@H](CCS(=O)(=O)O)C(=O)O` [HCA]: in experiment [1], half-maximal inhibition (IC50) required 5.75 µM.
In the case of `N[C@@H](CCC(=O)O)C(=O)O` [L-glutamate], in experiment [2], the “radiolabeled substrate uptake in Na+-free buffer, transfected versus non-transfe” value is “[^3H]-L-glutamate uptake measured in the transfected cells was significantly higher as compared to non-transfected cells”. For the same compound, in experiment [3], the “radiolabeled substrate uptake in Na+-free buffer, knockout control” value was “the uptake of [^3H]-L-glutamate was barely detectable in astrocytes derived from the transgenic mice lacking xCT”.
